Source: patent US8772509B2, “Indole compounds as positive allosteric modulators of the muscarinic receptor” (Vanderbilt University, priority 2010, dated 2014)

Biological target: T1, mAChR M1 (UniProt P08482)
T1 sequence (P08482 1-460): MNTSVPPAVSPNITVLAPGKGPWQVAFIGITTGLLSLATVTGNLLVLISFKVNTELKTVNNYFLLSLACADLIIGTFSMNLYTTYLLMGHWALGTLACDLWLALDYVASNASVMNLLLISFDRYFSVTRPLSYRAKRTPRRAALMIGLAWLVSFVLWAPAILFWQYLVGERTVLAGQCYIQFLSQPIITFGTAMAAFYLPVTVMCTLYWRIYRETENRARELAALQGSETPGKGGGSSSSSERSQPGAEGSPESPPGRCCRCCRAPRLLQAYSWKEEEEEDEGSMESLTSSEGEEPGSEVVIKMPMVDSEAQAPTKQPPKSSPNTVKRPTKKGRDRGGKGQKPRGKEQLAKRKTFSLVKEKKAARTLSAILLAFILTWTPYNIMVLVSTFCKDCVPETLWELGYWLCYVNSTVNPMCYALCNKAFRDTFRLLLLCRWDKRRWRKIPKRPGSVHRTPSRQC
Assay: mAChR M1 cell-based functional assay (calcium mobilization, Fluo-4, FDSS)
Conditions: for Efficacy (% ACh maximum at 30 μM): maximal calcium flux response from curve fit or response at 30 μM compound, as % of the EC80 ACh response; for EC50: positive allosteric modulation of EC20 acetylcholine response, CHO-K1 cells expressing mAChR M1, read-out: Potency (EC50)
Protocol: Chinese hamster ovary (CHO-K1) cells stably expressing rat (r)M1 were purchased from the American Type Culture Collection and cultured according to their indicated protocol. […] To make stable rM2, hM2, rM3, hM4, and rM4 cell lines for use in calcium mobilization assays, these cells also were stably transfected with a chimeric G-protein (Gqi5) (provided by B. R. Conklin, University of California, San Francisco) using Lipofectamine 2000. rM1, hM1, rM3, hM3, rM5, and hM5 cells were grown in Ham's F-12 medium containing 10% heat-inactivated fetal bovine serum (FBS), 20 mM HEPES, and 50 μg/mL G418 sulfate. rM2-Gqi5, hM2-Gqi5, and hM4-Gqi5 cells were grown in the same medium also containing 500 μg/mL Hygromycin B. Stable rM4-Gqi5 cells were grown in DMEM containing 10% heat-inactivated FBS, 20 mM HEPES, 400 μg/mL G418 sulfate, and 500 μg/mL Hygromycin B.
For high throughput measurement of agonist-evoked increases in intracellular calcium, CHO-K1 cells stably expressing muscarinic receptors were plated in growth medium lacking G418 and hygromycin at 15,000 cells/20 μL/well in Greiner 384-well black-walled, tissue culture (TC)-treated, clear-bottom plates (VWR). Cells were incubated overnight at 37° C. and 5% CO2. […] Compound master plates were formatted in an 11 point CRC format (1:3 dilutions) in 100% DMSO with a starting concentration of 10 mM using the BRAVO liquid handler (Agilent). Test compound CRCs were then transferred to daughter plates (240 nL) using the Echo acoustic plate reformatter (Labcyte, Sunnyvale, Calif.) and then diluted into assay buffer (40 μL) to a 2× stock using a Thermo Fisher Combi (Thermo Fisher Scientific, Waltham, Mass.).
Calcium flux was measured using the Functional Drug Screening System (FDSS) 6000 (Hamamatsu Corporation, Tokyo, Japan) as an increase in the fluorescent static ratio. Compounds were applied to cells (20 μL, 2×) using the automated system of the FDSS 6000 at 4 s into the 300 s protocol and the data were collected at 1 Hz. […] Agonist activity was analyzed as a concentration-dependent increase in calcium mobilization upon compound addition. Positive allosteric modulator activity was analyzed as a concentration-dependent increase in the EC20 acetylcholine response. Antagonist activity was analyzed as a concentration-dependent decrease in the EC80 acetylcholine response. Concentration-response curves were generated using a four-parameter logistical equation in XLfit curve fitting software (IDBS, Bridgewater, N.J.) for Excel (Microsoft, Redmond, Wash.) or Prism (GraphPad Software, Inc., San Diego, Calif.).
The calcium mobilization assay was also used to determine “efficacy”. In the context of the assays carried out for the data in Table I, “efficacy” (% ACh at 30 μM) is defined as the maximal response in the calcium flux as determined by the sigmoidal curve fit of the concentration response curve, or in the absence of an acceptable curve fit, the response recorded at 30 μM test compound, stated as a percentage of the response elicited by a concentration of Ach that induces approximately 80% of a maximal (i.e. saturating) ACh response.

Structure (SMILES)	Efficacy (% ACh maximum at 30 μM) [%]	EC50 [µM]
Cc1cc(NC(=O)CS(=O)(=O)c2cn(Cc3cccc(Cl)c3F)c3ccccc23)no1 [compound 26, 2-((1-(3-chloro-2-fluorobenzyl)-1H-indol-3-yl)sulfonyl)-N-(5-methylisoxazol-3-yl)acetamide]	56	5.1
COc1ccccc1Cn1cc(S(=O)(=O)CC(=O)Nc2cc(C)on2)c2ccccc21 [compound 47, 2-{1-[(2-methoxyphenyl)methyl]-1H-indole-3-sulfonyl}-N-(5-methyl-1,2-oxazol-3-yl)acetamide]	–	> 10
Cc1cc(NC(=O)C(Cc2ccc(F)cc2F)S(=O)(=O)c2cn(Cc3ccc(F)cc3F)c3ccccc23)no1 (centres unmarked) [compound 71, 3-(2,4-difluorophenyl)-2-{1-[(2,4-difluorophenyl)methyl]-1H-indole-3-sulfonyl}-N-(5-methyl-1,2-oxazol-3-yl)propanamide]	–	> 10
Cc1cc(NC(=O)C[S+]([O-])c2cn(Cc3cccc(Cl)c3)c3ccccc23)no1 (centres unmarked) [compound 29, 2-((1-(3-chlorobenzyl)-1H-indol-3-yl)sulfinyl)-N-(5-methylisoxazol-3-yl)acetamide]	93	5.23
Cc1cc(NC(=O)CS(=O)(=O)c2cn(Cc3cccc(-c4cc[nH]n4)c3F)c3ccccc23)no1 [compound 23, 2-((1-(2-fluoro-3-(1H-pyrazol-3-yl)benzyl)-1H-indol-3-yl)sulfonyl)-N-(5-methylisoxazol-3-yl)acetamide]	103	4.4
Cc1cc(NC(=O)CS(=O)(=O)c2cn(Cc3cccc(-c4ccc(N5CCOCC5)nc4)c3)c3ccccc23)no1 [compound 72, N-(5-methyl-1,2-oxazol-3-yl)-2-[1-({3-[6-(morpholin-4-yl)pyridin-3-yl]phenyl}methyl)-1H-indole-3-sulfonyl]acetamide]	–	> 10
Cc1cc(NC(=O)CS(=O)(=O)c2cn(Cc3ccc(F)c(Cl)c3)c3ccccc23)no1 [compound 52, 2-{1-[(3-chloro-4-fluorophenyl)methyl]-1H-indole-3-sulfonyl}-N-(5-methyl-1,2-oxazol-3-yl)acetamide]	–	> 10
Cc1cc(NC(=O)CS(=O)(=O)c2cn(Cc3cccc(C#N)c3)c3ccccc23)no1 [compound 45, 2-{1-[(3-cyanophenyl)methyl]-1H-indole-3-sulfonyl}-N-(5-methyl-1,2-oxazol-3-yl)acetamide]	–	> 10
Cc1cc(NC(=O)CS(=O)(=O)c2cn(Cc3ccc(F)nc3)c3ccccc23)no1 [compound 44, 2-{1-[(6-fluoropyridin-3-yl)methyl]-1H-indole-3-sulfonyl}-N-(5-methyl-1,2-oxazol-3-yl)acetamide]	–	> 10
Cc1cc(NC(=O)C(C)S(=O)(=O)c2cn(Cc3cc(Br)cc(Br)c3)c3ccccc23)no1 (centres unmarked) [compound 73, 2-{1-[(3,5-dibromophenyl)methyl]-1H-indole-3-sulfonyl}-N-(5-methyl-1,2-oxazol-3-yl)propanamide]	–	> 10
O=C(CS(=O)(=O)c1cn(Cc2cccc(Br)c2)c2cc(F)cc(F)c12)NC1COC1 [compound 34, 2-((1-(3-bromobenzyl)-4,6-difluoro-1H-indol-3-yl)sulfonyl)-N-(oxetan-3-yl)acetamide]	43	> 10
Cc1cc(NC(=O)C(Cc2cccc(Cl)c2)S(=O)(=O)c2cn(Cc3cccc(Cl)c3)c3ccccc23)no1 (centres unmarked) [compound 69, 3-(3-chlorophenyl)-2-{1-[(3-chlorophenyl)methyl]-1H-indole-3-sulfonyl}-N-(5-methyl-1,2-oxazol-3-yl)propanamide]	–	> 10
Cc1cc(NC(=O)CS(=O)(=O)c2cn(Cc3cccc(Br)c3)c3ccccc23)no1 [compound 22, 2-((1-(3-bromobenzyl)-1H-indol-3-yl)sulfonyl)-N-(5-methylisoxazol-3-yl)acetamide]	91	3.79
Cc1cc(NC(=O)CS(=O)(=O)c2cn(Cc3ccc(F)c(Br)c3)c3ccccc23)no1 [compound 61, 2-{1-[(3-bromo-4-fluorophenyl)methyl]-1H-indole-3-sulfonyl}-N-(5-methyl-1,2-oxazol-3-yl)acetamide]	–	> 10

Second part, the compound after the results:

Efficacy (% ACh maximum at 30 μM) [%]	EC50 [µM]	Structure (SMILES)
38	4.4	O=C(CS(=O)(=O)c1cn(Cc2cccc(-c3cccnc3F)c2)c2cc(F)cc(F)c12)Nc1ccccn1 [compound 24, 2-((4,6-difluoro-1-(3-(2-fluoropyridin-3-yl)benzyl)-1H-indol-3-yl)sulfonyl)-N-(pyridin-2-yl)acetamide]
43	2.7	O=C(CS(=O)(=O)c1cn(Cc2cccc(-c3cccnc3Cl)c2)c2cc(F)cc(F)c12)Nc1ccccn1 [compound 11, 2-((1-(3-(2-chloropyridin-3-yl)benzyl)-4,6-difluoro-1H-indol-3-yl)sulfonyl)-N-(pyridin-2-yl)acetamide]
103	5.37	Cc1cc(NC(=O)CS(=O)(=O)c2cn(Cc3cccc(Br)c3)c3cc(F)cc(F)c23)no1 [compound 30, 2-((1-(3-bromobenzyl)-4,6-3-yl)sulfonyl)-N-(5-methylisoxazol-3-yl)acetamide]
72	1.5	Cc1cc(NC(=O)CS(=O)(=O)c2cn(Cc3cccc(-n4ccnn4)c3)c3cc(F)cc(F)c23)no1 [compound 3, 2-((1-(3-(1H-1,2,3-triazol-1-yl)benzyl)-4,6-difluoro-1H-indol-3-yl)sulfonyl)-N-(5-methylisoxazol-3-yl)acetamide]
34	> 10	O=C(CS(=O)(=O)c1cn(Cc2cccc(Br)c2)c2cc(F)cc(F)c12)NCc1ccccn1 [compound 39, 2-((1-(3-bromobenzyl)-4,6-difluoro-1H-indol-3-yl)sulfonyl)-N-(pyridin-2-ylmethyl)acetamide]
–	5.22	Cc1cc(NC(=O)CS(=O)(=O)c2cn(Cc3cccc(F)c3)c3ccccc23)no1 [compound 28, 2-((1-(3-fluorobenzyl)-1H-indol-3-yl)sulfonyl)-N-(5-methylisoxazol-3-yl)acetamide]
102	1.85	Cc1cc(NC(=O)CS(=O)(=O)c2cn(Cc3cccc(-c4cn[nH]c4)c3)c3cc(F)cc(F)c23)no1 [compound 4, 2-((1-(3-(1H-pyrazol-4-yl)benzyl)-4,6-difluoro-1H-indol-3-yl)sulfonyl)-N-(5-methylisoxazol-3-yl)acetamide]
44	2.5	O=C(CS(=O)(=O)c1cn(Cc2cccc(Br)c2)c2cc(F)cc(F)c12)Nc1nc2ccccc2o1 [compound 9, N-(benzo[d]oxazol-2-yl)-2-((1-(3-bromobenzyl)-4,6-difluoro-1H-indol-3-yl)sulfonyl)acetamide]
55	2.9	O=C(CS(=O)(=O)c1cn(Cc2cccc(-c3ccncc3)c2)c2cc(F)cc(F)c12)Nc1ccccn1 [compound 14, 2-((4,6-difluoro-1-(3-(pyridin-4-yl)benzyl)-1H-indol-3-yl)sulfonyl)-N-(pyridin-2-yl)acetamide]
57	4.6	O=C(CS(=O)(=O)c1cn(Cc2cccc(-c3cccnc3)c2)c2cc(F)cc(F)c12)Nc1ccccn1 [compound 25, 2-((4,6-difluoro-1-(3-(pyridin-3-yl)benzyl)-1H-indol-3-yl)sulfonyl)-N-(pyridin-2-yl)acetamide]
